Data set [1] is described as follows: The drug is tested on WLS-098 corresponding to human gut metagenome with ENA study accession number: PRJEB37062 and ENA sample accession number: ERS12561754 for biotransformation under anaerobic condition. The drug concentrations were measured over 9 timepoints collected between 0 and 24 hours of incubation by liquid-chromatography-coupled mass spectrometry (LC–MS). The following applies: 2 µM.

Data set [2] in a line: The drug is tested on Z-018 corresponding to pig gut metagenome with ENA study accession number: PRJEB37062 and ENA sample accession number: ERS12561817 for biotransformation under anaerobic condition. The drug concentrations were measured over 9 timepoints collected between 0 and 24 hours of incubation by liquid-chromatography-coupled mass spectrometry (LC–MS). The settings on record: 2 µM.

Data set [3] is described as follows: The drug is tested on Z-008 corresponding to metagenome with ENA study accession number: PRJEB37062 and ENA sample accession number: ERS12561808 for biotransformation under anaerobic condition. The drug concentrations were measured over 9 timepoints collected between 0 and 24 hours of incubation by liquid-chromatography-coupled mass spectrometry (LC–MS). The following applies: 2 µM.

The nature of data set [4]: The drug is tested on WLS-069 corresponding to human gut metagenome with ENA study accession number: PRJEB37062 and ENA sample accession number: ERS12561748 for biotransformation under anaerobic condition. The drug concentrations were measured over 9 timepoints collected between 0 and 24 hours of incubation by liquid-chromatography-coupled mass spectrometry (LC–MS). The following applies: 2 µM.

The nature of data set [5]: The drug is tested on Z-028 corresponding to mouse gut metagenome with ENA study accession number: PRJEB37062 and ENA sample accession number: ERS12561827 for biotransformation under anaerobic condition. The drug concentrations were measured over 9 timepoints collected between 0 and 24 hours of incubation by liquid-chromatography-coupled mass spectrometry (LC–MS). The settings on record: 2 µM.

Data set [6] can be described thus: The drug is tested on Z-020 corresponding to rabbit gut metagenome with ENA study accession number: PRJEB37062 and ENA sample accession number: ERS12561819 for biotransformation under anaerobic condition. The drug concentrations were measured over 9 timepoints collected between 0 and 24 hours of incubation by liquid-chromatography-coupled mass spectrometry (LC–MS). The following applies: 2 µM.

For data set [7] the following is noted: human gut metagenome, 24 h, 2 µM.
A short description of data set [8]: The drug is tested on WLS-310 corresponding to human gut metagenome with ENA study accession number: PRJEB37062 and ENA sample accession number: ERS12561785 for biotransformation under anaerobic condition. The drug concentrations were measured over 9 timepoints collected between 0 and 24 hours of incubation by liquid-chromatography-coupled mass spectrometry (LC–MS). The settings on record: 2 µM.

For data set [9] the following is noted: human gut metagenome, 24 h, 2 µM. This is another data set of the same source.
Data set [10] in a line: The drug is tested on Z-029 corresponding to rat gut metagenome with ENA study accession number: PRJEB37062 and ENA sample accession number: ERS12561828 for biotransformation under anaerobic condition. The drug concentrations were measured over 9 timepoints collected between 0 and 24 hours of incubation by liquid-chromatography-coupled mass spectrometry (LC–MS). The following applies: 2 µM.

The conditions of data set [11]: human gut metagenome, 24 h, 2 µM. This is another data set of the same source.
A short description of data set [12]: The drug is tested on Z-022 corresponding to mouse gut metagenome with ENA study accession number: PRJEB37062 and ENA sample accession number: ERS12561821 for biotransformation under anaerobic condition. The drug concentrations were measured over 9 timepoints collected between 0 and 24 hours of incubation by liquid-chromatography-coupled mass spectrometry (LC–MS). The settings on record: 2 µM.

A short description of data set [13]: The drug is tested on WLS-039 corresponding to human gut metagenome with ENA study accession number: PRJEB37062 and ENA sample accession number: ERS12561746 for biotransformation under anaerobic condition. The drug concentrations were measured over 9 timepoints collected between 0 and 24 hours of incubation by liquid-chromatography-coupled mass spectrometry (LC–MS). The settings on record: 2 µM.

Data set [14] in a line: The drug is tested on WLS-073 corresponding to human gut metagenome with ENA study accession number: PRJEB37062 and ENA sample accession number: ERS12561749 for biotransformation under anaerobic condition. The drug concentrations were measured over 9 timepoints collected between 0 and 24 hours of incubation by liquid-chromatography-coupled mass spectrometry (LC–MS). The settings on record: 2 µM.

Data set [15] in a line: The drug is tested on WLS-038 corresponding to human gut metagenome with ENA study accession number: PRJEB37062 and ENA sample accession number: ERS12561745 for biotransformation under anaerobic condition. The drug concentrations were measured over 9 timepoints collected between 0 and 24 hours of incubation by liquid-chromatography-coupled mass spectrometry (LC–MS). The settings on record: 2 µM.

The conditions of data set [16]: human gut metagenome, 24 h, 2 µM. This is another data set of the same source.
A short description of data set [17]: The drug is tested on WLS-006 corresponding to human gut metagenome with ENA study accession number: PRJEB37062 and ENA sample accession number: ERS12561741 for biotransformation under anaerobic condition. The drug concentrations were measured over 9 timepoints collected between 0 and 24 hours of incubation by liquid-chromatography-coupled mass spectrometry (LC–MS). The following applies: 2 µM.

A short description of data set [18]: The drug is tested on Z-019 corresponding to rat gut metagenome with ENA study accession number: PRJEB37062 and ENA sample accession number: ERS12561818 for biotransformation under anaerobic condition. The drug concentrations were measured over 9 timepoints collected between 0 and 24 hours of incubation by liquid-chromatography-coupled mass spectrometry (LC–MS). The following applies: 2 µM.

For data set [19] the following is noted: human gut metagenome, 24 h, 2 µM. This is another data set of the same source.
The conditions of data set [20]: human gut metagenome, 24 h, 2 µM. This is another data set of the same source.
Further: call rule not given here.

Take `CCOC(=O)C1=C[C@]2(CC)CCCN3CCc4c(n1c1ccccc41)[C@@H]32` [VINPOCETINE]: the “Bacterial Biotransformation” value in data set [1] is listed as “Compound metabolized”; in data set [2] it was “Compound metabolized”; in [3] it was “Compound NOT metabolized”; in [4], “Compound metabolized”; in [5] it was “Compound NOT metabolized”; in [6] it was “Compound metabolized”. Also, the “Bacterial Biotransformation” value is reported as “Compound NOT metabolized” in data set [7]; “Compound metabolized” in data set [8]; “Compound metabolized” in data set [9]; “Compound NOT metabolized” in [10]; “Compound NOT metabolized” in data set [11]; “Compound metabolized” in [12]. Moreover, the “Bacterial Biotransformation” value is on record as “Compound NOT metabolized” in [13]; “Compound metabolized” in data set [14]; “Compound NOT metabolized” in data set [15]; “Compound metabolized” in data set [16]; “Compound metabolized” in data set [17]; “Compound NOT metabolized” in [18]. Also, the “Bacterial Biotransformation” value was “Compound NOT metabolized” in [19] and “Compound metabolized” in data set [20].

Turning to `CCN(C(C)=O)c1cccc(-c2ccnc3c(C#N)cnn23)c1` [ZALEPLON], the “Bacterial Biotransformation” value in [1] is “Compound metabolized”; in [2], “Compound metabolized”; in data set [3] it was “Compound NOT metabolized”; in [4] it was “Compound metabolized”; in [5], “Compound NOT metabolized”; in [6] it was “Compound metabolized”. Moreover, the “Bacterial Biotransformation” value is “Compound metabolized” in data set [7]; “Compound metabolized” in data set [8]; “Compound metabolized” in data set [9]; “Compound NOT metabolized” in [10]; “Compound metabolized” in data set [11]; “Compound NOT metabolized” in data set [12]. For the same compound, the “Bacterial Biotransformation” value in [13] is “Compound metabolized”; in [14] it was “Compound metabolized”; in [15] it was “Compound metabolized”; in data set [16], “Compound metabolized”; in data set [17] it was “Compound metabolized”; in data set [18] it was “Compound NOT metabolized”. The “Bacterial Biotransformation” value in data set [19] and in data set [20] was “Compound metabolized” each time.

The values are drawn from ChEMBL document CHEMBL5724914, “Linking interpersonal differences in gut microbiota composition and drug biotransformation activity” (2024).
